Where two headings read alike, the source gives them in different places.
What was measured:
[1] = Pharmacokinetic studies, oral and intravenous dosing; assay type: in vivo, CD1 mice; details: for MRT inf: read-out: MRT 0-∞
Description: Next, we conducted pharmacokinetic (PK) studies with 51-106. Briefly, mice were dosed either intravenously (IV) or orally with 10 mg/kg of 51-106 and sampled at 0.083, 0.25, 0.5, 1, 2, 4, 8, and 24 h. […] This was accomplished by strategic placement of fluorine atoms at metabolically vulnerable sites on the molecule.
Pharmacokinetic studies (10 mg/kg oral and intravenous dosing) were performed following previously reported methods. Sample analysis was performed by liquid chromatography–tandem mass spectrometry (SCIEX QTRAP 4000 LC-MS/MS System). The pharmacokinetic parameters were determined using non-compartmental analyses module of WinNonlin 1.5.

[2] = tested on: NPM1 phosphorylation; test: TMT phosphoproteomics of PANC-1 cells; assay type: cell-based; details: 10 μM, 2 h, versus DMSO
Description: Next, we wanted to assess the effects of 51-106 on the early phosphorylation events associated with transient MAP3K1 inhibition. To this end, we conducted global proteomic and phosphoproteomic analyses of PANC-1 cells treated with varying doses of 51-106 (10, 5, 2.5, 1.25, 0.625, and 0 μM) for 2 h using a tandem mass tag (TMT)-based multiplexing strategy (Figure 4). Across all conditions, a total of 7028 proteins and 22,843 phosphosites were quantified and successfully mapped to known protein sequences. Significance cutoffs of >0.32 or <−0.32 log2FC of 51-106 compared to DMSO and FDR < 0.05 were used to analyze differences in total and phosphorylated protein levels between treatment and control samples using RokaiXplorer (Supplementary Figure S3a).
PANC-1 (1 × 10^7) cells were seeded into T125 flasks (FB012939, Fisher Scientific) and allowed to attach overnight in a humidified 5% CO2 incubator at 37 °C. Drug working solutions were prepared from 10 mM DMSO stocks. 51-106 was added in 4 dilutions, in triplicates. […]
Global proteome and phosphopeptide-enriched fractions were analyzed on an Orbitrap Eclipse mass spectrometer using UltiMate 3000 RSLC nano system for online separation of peptides in trap and elute configuration (Thermo Scientific, San Jose, CA, USA). […] Survey MS scans were recorded in Orbitrap mass analyzer with 375 to 1500 m/z scan range at 120,000 resolution. […]

[3] = Metabolic stability in human liver microsomes (LC-MS/MS); assay type: in vitro ADME
Source text: An approach to address this issue of bioavailability is to improve metabolic stability. The para-position of the phenyl ring in acetanilide moieties is susceptible to oxidation. […] To test this, we altered the substitution pattern on the phenyl ring by moving the F atom from the ortho in 84 to the para position (Figure 1A). The regioisomer 51-106, resulting from the above change, was synthesized by coupling 3-(1-methyl-1H-pyrazol-4-yl)quinoxalin-6-amine (1) with freshly prepared 1-fluoro-4-isocyanato-2-(trifluoromethyl)benzene in dichloromethane (Scheme 1). To determine the metabolic stability of 51-106, we incubated 51-106 and analog 84 with human (pooled male and female) liver microsomes and monitored their stability using liquid chromatography–tandem mass spectrometry.
The in vitro metabolic stability of 51-106 was determined using human liver […] (XenoTech, LLC; Kansas City, KS, USA), following previously reported methods. […] Sample analysis was performed by liquid chromatography–tandem mass spectrometry (SCIEX QTRAP 4000 LC-MS/MS System, SCIEX, Framingham, MA, USA).

[4] = mouse, in vivo, CD1 mice, 10 mg/kg, Intravenous
[5] = mouse, in vivo, CD1 mice, 10 mg/kg, Oral

Cn1cc(-c2cnc3ccc(NC(=O)Nc4ccc(F)c(C(F)(F)F)c4)cc3n2)cn1 [51-106, 1-(4-Fluoro-3-(trifluoromethyl)phenyl)-3-(3-(1-methyl-1H-pyrazol-4-yl)quinoxalin-6-yl)urea]
improvement of oral bioavailability ([1]; 51-106 compared to analog 84): ~ 3.5 fold | improvement of t1/2 in mice ([1]; 51-106 compared to analog 84): ~ 1.4 fold | bioavailability ([1]; CD1, mouse, in vivo, po, 10 mg/kg, CD1 mice, 10 mg/kg, Oral, read-out: Bioavailability (%F)): 62.3% | Bioavailability (%F) ([1]; CD1 mice, 10 mg/kg, Oral): ~62% | AUC(0-inf) [1, 4]: 9120 ± 755 ng·h/mL | AUC(0-t) [1, 4]: 8960 ± 812 ng·h/mL | Cmax [1, 4]: 4380 ± 447 ng/mL | half-life [1, 4]: 1.7 ± 0.3 h | MRT inf [1, 4]: 2.2 ± 0.3 h | Vd ([1]; mouse, in vivo, CD1 mice, 10 mg/kg, Intravenous, read-out: Vss): 2.5 ± 0.3 L/kg | AUC(0-inf) [1, 5]: 5680 ± 1930 ng·h/mL | AUC(0-t) [1, 5]: 4580 ± 2500 ng·h/mL | Cmax [1, 5]: 689 ± 190 ng/mL | Tmax [1, 5]: 2.7 h | half-life [1, 5]: 3.5 h | MRT inf [1, 5]: 6.4 ± 1.5 h | decrease in NPM1 S227 phosphorylation [2]: 3.5 fold | improvement in t½ in human liver microsomes ([3]; 51-106 versus analog 84): ~ 3.7 fold | T1/2 (half-life) in human liver microsomes ([3]; Species Human): ~ 50 h | Hepatic Extraction Ratio (E) ([3]; Species Human, human liver microsomes): 0.03 | half-life ([3]; both sexes, human, liver microsomes, Species Human, read-out: T1/2 (half-life) in human liver microsomes (converted)): 50.2 h

Source: publication PMC12073402, “A Selective MAP3K1 Inhibitor Facilitates Discovery of NPM1 as a Member of the Network” (Molecules, 2025)
